Assay results reported in patent publication US20140242093A1, “METHODS AND COMPOSITIONS FOR MODULATING THE INNATE IMMUNE RESPONSE AND/OR MYOGENESIS IN A MAMMALIAN SUBJECT” (FRED HUTCHINSON CANCER RESEARCH CENTER, priority 2011, published 2014).

Test system: control human primary myoblasts
Test: Expression microarray of primary myoblasts transduced with lentivirus carrying DUX4-fl, DUX4-s or GFP
Conditions: log2 fc vs lenti-GFP, 24 h
Procedure: Primary human myoblasts were collected and cultured as previously described (Snider et al., 2010). Primary myoblasts were maintained at or below 70% confluency for proliferation. For differentiation, cells were allowed to reach 95-100% confluency in growth medium. Once confluency was reached, the cells were changed to differentiation medium (F10 media supplemented with 1% horse serum, 10 μg/mL insulin, and 10 μg/mL transferrin, penicillin/streptomycin) and maintained for 4 days. Human RD cells were grown in DMEM in 10% bovine calf serum (Hyclone) and penicillin/streptomycin. The primary myoblasts were transduced with lentivirus carrying DUX-fl, DUX4- or GFP (MOI=15).
Expression microarrays were performed on the transduced cells at 24 hours after transduction as follows. […] Samples were analyzed by Illumina Human Whole Genome microarrays. Probe intensities were corrected, normalized, and summarized by the Lumi package of Bioconductor (Du et al., 2008). Differentially expressed genes were identified by the LIMMA package of Bioconductor (Wettenhall and Smyth, 2004). Gene set enrichment analysis (GSEA) was performed using the Bioconductor GOstats package (Falcon and Gentleman, 2007).

## DUX4-fl: full-length DUX4 protein (SEQ ID NO:110), expressed from lentiviral or pCS2 vectors or in vitro translated
  full_fc ART3: 4.363
  full_fc C6orf148: 6.759
  full_fc C12orf50: 4.522
  full_fc CA2: 6.091
  full_fc CCNA1: 7.526
  full_fc CSAG3: 5.871
  full_fc DEFB103A: 6.442
  full_fc ENTPD8: 4.073
  full_fc HBA1: 4.787
  full_fc HBA2: 4.721
  full_fc HIST2H3A: 4.945
  full_fc KHDC1L: 8.012
  full_fc LOC136157: 8.299
  full_fc LOC196120: 8.179
  full_fc LOC284428: 8.023
  full_fc LOC340096: 7.382
  full_fc LOC340970: 8.316
  full_fc LOC342900: 7.391
  full_fc LOC390031: 8.331
  full_fc LOC391742: 5.733
  full_fc LOC391764: 5.821
  full_fc LOC391766: 5.724
  full_fc LOC391767: 5.492
  full_fc LOC391769: 8.19
  full_fc LOC399939: 6.931
  full_fc LOC399940: 4.727
  full_fc LOC401860: 4.272
  full_fc LOC402199: 4.392
  full_fc LOC402207: 4.903
  full_fc LOC440040: 7.534
  full_fc LOC440563: 5.312
  full_fc LOC441584: 7.781
  full_fc LOC642127: 6.112
  full_fc LOC642148: 6.851
  full_fc LOC642219: 4.799
  full_fc LOC642362: 8.016
  full_fc LOC643263: 8.345
  full_fc LOC643445: 8.25
  full_fc LOC645558: 4.803
  full_fc LOC645669: 8.202
  full_fc LOC646066: 4.391
  full_fc LOC646103: 4.658
  full_fc LOC646698: 6.012
  full_fc LOC646754: 5.11
  full_fc LOC647827: 4.053
  full_fc LOC651308: 8.169
  full_fc LOC653192: 8.228
  full_fc LOC653656: 7.897
  full_fc LOC653657: 7.857
  full_fc LOC654101: 5.034
  full_fc LOC729368: 5.416
  full_fc LOC729384: 6.832
  full_fc LOC729458: 8.247
  full_fc LOC729516: 5.955
  full_fc LOC729694: 4.029
  full_fc LOC729700: 4.817
  full_fc LOC729706: 4.227
  full_fc LOC729731: 5.007
  full_fc LOC730974: 7.715
  full_fc LOC732393: 4.637
  full_fc LOC100131392: 6.976
  full_fc LOC100131539: 4.629
  full_fc LOC100133446: 4.635
  full_fc LOC100133984: 6.204
  full_fc LOC100134006: 7.087
  full_fc LOC100134199: 8.048
  full_fc MBD3L2: 7.623
  full_fc NP: 6.961
  full_fc NXF1: 4.233
  full_fc OR2T34: 4.519
  full_fc PPP2R2B: 4.13
  full_fc PRAMEF1: 8.072
  full_fc PRAMEF2: 6.439
  full_fc PRAMEF4: 7.06
  full_fc PRAMEF5: 7.35
  full_fc PRAMEF6: 5.826
  full_fc PRAMEF7: 7.631
  full_fc PRAMEF9: 7.131
  full_fc PRAMEF10: 6.064
  full_fc PRAMEF11: 5.94
  full_fc PRAMEF12: 7.802
